# Experimental data published in ChEMBL document CHEMBL5728837, “Non-fused tricyclic compounds” (2021).
# Assay: YAP Reporter Assay: HEK293T cells stably transfected with 8XTBD luciferase reporter and pRLTK in 384-well plates were treated with the test compounds, starting from 3 μM (final concentration in assay plate), 1:3 dilution, and 10 points in quadruplicates. Post 24-hr incubation with compounds at 37° C. and 5% CO2, cells were lysed and 8XTBD-driven firefly luciferase and control TK-driven renilla luciferase activities were measured using Promega Dual-Luciferase Reporter Assay System.Reagents: The reagents used for this study are: DMEM: Invitrogen #11960077, Dual-Glo Luciferase Assay System: Promega-E2980, Puromycin Dihydrochloride: Invitrogen-A1113803, 384-well plate: PerkinElmer-6007480, L-GLUTAMINE: Invitrogen-25030164, Hygromycin B: Invitrogen-10687010, and Penicillin-Streptomycin: Merk-TMS-AB2-CMedia: The media used for this assay were: Culture Medium: DMEM+1 ug/mL puromycin+200 ug/mL hygromycin (with 10% FBS+1 mM L-glutamine); and Assay Medium: DMEM (with 10% FBS+1 mM L-glutamine+1× P/S).Cell Plating: The appropriate media was warmed at 37° C. by water bath: Culture Medium, Assay Medium, 1*D-PBS, 0.05% trypsin-EDTA. The cells were trypsinized after removing all media, then washed with 1*sterile D-PBS and then with 2 ml 0.05% trypsin-EDTA. The cells were then incubated at RT for one minute. Then 10 ml/75 cm2 flask Assay Medium was added to each flask. Using a 10 ml pipette, the cells were then gently resuspended in the media, until the clumps completely disappeared. The cells were then transferred into 50 ml centrifuge tubes and were centrifuged at 800 rpm for 5 mins. The medium was removed and the cells were resuspended with Assay Medium. An aliquot of cells was used to count the cell density (cells/nil). The cell suspension was then diluted with Assay Medium to a concentration of 6×10^4 cells/ml. 50 ul cells suspension was then plated to 384-well plate (PerkinElmer-6007480), 3×10^3 cells/well and the cells were incubated in an incubator at 37° C., 5% CO2.Compound Treatment: In the afternoon (incubation of the plate with 3-4 hrs), the test compounds were added by Echo, starting from 3 uM (final concentration in the assay plate), 1:3 dilution, 10 points, quadruplicates. The plate was placed at 37° C., 5% CO2 incubator for 24 hrs.Detection: The Dual-Glo Luciferase Reagent was prepared by transferring the contents of one bottle of Dual-Glo Luciferase Buffer to one bottle of Dual-Glo Luciferase Substrate to create the Dual-Glo Luciferase Reagent. Mixing was performed by inversion until the substrate was thoroughly dissolved. After mixing, the reagent was aliquoted into 15 ml tubes. In the afternoon (24 hrs post compound treatment), the DMEM+ medium in the 384 well plates were aspirated by Microplate Washer.Measuring firefly luciferase activity: 20 ul Dual-Glo Luciferase Reagent was added to the 384-well plates. The plates were protected from light to prevent interference with the assay. The plates were shaken for 1 min followed centrifuging plates at 1000 rpm for 30 seconds. After waiting at least 10 minutes, the firefly luminescence was measured by Envision.Measuring renilla luciferase activity: 20 ul Stop-Glo Reagent was added to the 384-well plates. The plates were shaken for lmin and then centrifuged at 1000 rpm for 30 seconds. After waiting at least 10 minutes, the renilla luminescence was measured by Envision.
# Conditions: HEK-293T, 24 h
row,SMILES,IC50
1,O=C(Cn1nnc(-c2ccccc2Nc2ccc(C(F)(F)F)cc2)n1)c1ccccc1,in the range around 3000 nM
2,CCOC(=O)Cn1cc(-c2ccccc2Nc2ccc(C(F)(F)F)cc2)cn1,< 100 nM
3,OCCn1nnc(-c2ccccc2Nc2ccc(Cl)c(Cl)c2)n1,in the range around 550 nM
4,CC(CN)n1nnc(-c2ccccc2Nc2ccc(C(F)(F)F)cc2)n1 (centres undefined),< 100 nM
5,OCCn1nnc(-c2cc(F)ccc2Nc2ccc(C(F)(F)F)cc2)n1,< 100 nM
6,C[C@H](O)[C@H](C)n1nnc(-c2ccccc2Nc2ccc(C(F)(F)F)cc2)n1,< 100 nM
7,OCCCn1nnc(-c2ccccc2Nc2cccc(C(F)(F)F)c2)n1,in the range around 550 nM
8,FC(F)(F)c1ccc(Nc2ccccc2-c2nnn(Cc3ccccn3)n2)cc1,in the range around 550 nM
9,Cc1c(-c2ccccc2Nc2ccc(C(F)(F)F)cc2)cnn1CCO,in the range around 3000 nM
10,CC(C)C(O)Cn1nnc(-c2ccccc2Nc2ccc(C(F)(F)F)cc2)n1 (centres undefined),in the range around 550 nM
11,FCCn1nnc(-c2ccccc2Nc2ccc(C(F)(F)F)cc2)n1,in the range around 550 nM
12,OC(Cn1nnc(-c2ccccc2Nc2ccc(C(F)(F)F)cc2)n1)C1CC1 (centres undefined),< 100 nM
13,FC(F)(F)c1ccc(Nc2ccccc2-c2nnn(Cc3ccncc3)n2)cc1,in the range around 550 nM
14,CCc1ccc(Nc2ccc(C(F)(F)F)cc2)c(-c2nnn(CCO)n2)c1,< 100 nM
15,CC(O)Cn1nnc(-c2ccccc2Nc2ccc(C(F)(F)F)cc2)n1 (centres undefined),< 100 nM
16,OC(Cn1nnc(-c2ccccc2Nc2ccc(C(F)(F)F)cc2)n1)C(F)(F)F (centres undefined),< 100 nM
17,C[C@H]([C@@H](C)O)n1nnc(-c2ccccc2Nc2ccc(C(F)(F)F)cc2)n1,< 100 nM
18,O=C(Cn1nnc(-c2ccccc2Nc2ccc(C(F)(F)F)cc2)n1)NO,in the range around 550 nM
19,FC(F)(F)c1ccc(Nc2ccccc2-c2nnn(CC3COC3)n2)cc1,in the range around 550 nM
20,CCOC(=O)C(C)n1nnc(-c2ccccc2Nc2ccc(C(F)(F)F)cc2)n1 (centres undefined),< 100 nM
21,Cc1nn(CCO)cc1-c1ccccc1Nc1ccc(C(F)(F)F)cc1,in the range around 3000 nM
22,Cn1nc(-c2ccccc2Nc2ccc(C(F)(F)F)cc2)nc1CCO,in the range around 3000 nM
23,OCCn1nnc(-c2ccccc2Nc2ccc(F)cc2F)n1,in the range around 550 nM

row,SMILES,IC50
1,OCCn1nnc(-c2cc(C(F)F)ccc2Nc2ccc(C(F)(F)F)cc2)n1,in the range around 550 nM
2,CCc1ccc(Nc2ccccc2-c2nnn(CCO)n2)cc1,in the range around 550 nM
3,[N-]=[N+]=Nc1ccc(Nc2ccccc2-c2nnn(CCO)n2)cc1,in the range around 550 nM
4,CNC(=O)Cn1nnc(-c2ccccc2Nc2ccc(OC(F)(F)F)cc2)n1,in the range around 550 nM
5,CCOC(=O)Cn1cnc(-c2ccccc2Nc2ccc(C(F)(F)F)cc2)c1,in the range around 550 nM
6,OCCn1nnc(-c2cc(Cl)ccc2Nc2ccc(C(F)(F)F)cc2)n1,< 100 nM
7,NCCn1nnc(-c2ccccc2Nc2ccc(C(F)(F)F)cc2)n1,in the range around 550 nM
8,FC(F)(F)c1ccc(Nc2ccccc2-c2nnn(-c3cccnc3)n2)cc1,in the range around 3000 nM
9,CCC(O)Cn1nnc(-c2ccccc2Nc2ccc(C(F)(F)F)cc2)n1 (centres undefined),< 100 nM
10,CC(CO)c1nc(-c2ccccc2Nc2ccc(C(F)(F)F)cc2)nn1C (centres undefined),in the range around 3000 nM
11,CS(=O)(=O)NCCCn1nnc(-c2ccccc2Nc2ccc(C(F)(F)F)cc2)n1,in the range around 3000 nM
12,NCCn1cnc(-c2ccccc2Nc2ccc(C(F)(F)F)cc2)n1,in the range around 550 nM
13,O=C1NC(Cn2nnc(-c3ccccc3Nc3ccc(C(F)(F)F)cc3)n2)CO1 (centres undefined),in the range around 550 nM
14,COc1ccc(Nc2ccc(C(F)(F)F)cc2)c(-c2nnn(CCO)n2)c1,< 100 nM
15,O[C@@H]1CNC[C@H]1n1nnc(-c2ccccc2Nc2ccc(C(F)(F)F)cc2)n1,in the range around 550 nM
16,FC(F)(F)c1ccc(Nc2ccccc2-c2nnn(C3COCOC3)n2)cc1,< 100 nM
17,COCCn1nnc(-c2ccccc2Nc2ccc(C(F)(F)F)cc2)n1,< 100 nM
18,CNCCCn1nnc(-c2ccccc2Nc2ccc(C(F)(F)F)cc2)n1,in the range around 3000 nM
19,OCCn1nnc(-c2ccccc2Nc2ccc(Br)cc2)n1,in the range around 550 nM
20,OCCn1nnc(-c2ccccc2Nc2ccc(F)c(F)c2)n1,in the range around 550 nM
21,CN(C)CCCn1nnc(-c2ccccc2Nc2ccc(OC(F)(F)F)cc2)n1,in the range around 3000 nM
22,NCC(CO)n1nnc(-c2ccccc2Nc2ccc(C(F)(F)F)cc2)n1 (centres undefined),in the range around 550 nM
23,OC1(Cn2nnc(-c3ccccc3Nc3ccc(C(F)(F)F)cc3)n2)COC1,< 100 nM

row,SMILES,IC50
1,CCOC(=O)Cn1cc(-c2ccccc2Nc2cccc(C(F)(F)F)c2)nn1,in the range around 3000 nM
2,OCCn1nnc(-c2cccnc2Nc2ccc(OC(F)(F)F)cc2)n1,in the range around 550 nM
3,COc1ccc(Nc2ccccc2-c2nnn(CCO)n2)cc1,in the range around 550 nM
4,O=C1NCC(Cn2nnc(-c3ccccc3Nc3ccc(C(F)(F)F)cc3)n2)O1 (centres undefined),in the range around 550 nM
5,OC1(Cn2nnc(-c3ccccc3Nc3ccc(C(F)(F)F)cc3)n2)CCN(c2ccccc2)C1 (centres undefined),in the range around 3000 nM
6,OCCn1nnc(-c2cc(C(F)(F)F)ccc2Nc2ccc(C(F)(F)F)cc2)n1,in the range around 550 nM
7,OCCn1nnc(-c2ccccc2Nc2ccccc2F)n1,in the range around 3000 nM
8,FC(F)(F)Oc1ccc(Nc2ccccc2-c2nnn(Cc3cccnc3)n2)cc1,in the range around 3000 nM
9,COc1ccc(-c2nnn(CCO)n2)c(Nc2ccc(C(F)(F)F)cc2)c1,< 100 nM
10,O=C(Cn1nnc(-c2ccccc2Nc2ccc(C(F)(F)F)cc2)n1)N1CCCC1,in the range around 550 nM
11,Cc1ccc(-c2nnn(CCO)n2)c(Nc2ccc(C(F)(F)F)cc2)c1,< 100 nM
12,Cc1ccc(Nc2ccc(C(F)(F)F)cc2)c(-c2nnn(CCO)n2)c1,< 100 nM
13,O=C1N[C@H](Cn2nnc(-c3ccccc3Nc3ccc(C(F)(F)F)cc3)n2)CO1,in the range around 550 nM
14,O=C1NCC(Cn2nnc(-c3ccccc3Nc3ccc(C(F)(F)F)cc3)n2)N1 (centres undefined),in the range around 550 nM
15,FC(F)(F)OCCn1nnc(-c2ccccc2Nc2ccc(C(F)(F)F)cc2)n1,in the range around 550 nM
16,CS(=O)(=O)NCCn1nnc(-c2ccccc2Nc2ccc(C(F)(F)F)cc2)n1,in the range around 3000 nM
17,NC(=O)NCCn1nnc(-c2ccccc2Nc2ccc(C(F)(F)F)cc2)n1,< 100 nM
18,OCCn1nnc(-c2cc(OC(F)F)ccc2Nc2ccc(C(F)(F)F)cc2)n1,< 100 nM
19,NC(=O)OCCn1nnc(-c2ccccc2Nc2ccc(C(F)(F)F)cc2)n1,< 100 nM
20,OC1(Cn2nnc(-c3ccccc3Nc3ccc(C(F)(F)F)cc3)n2)CCCNC1 (centres undefined),in the range around 550 nM
21,CC(=O)OC1(CN2N=C(c3ccccc3Nc3ccc(C(F)(F)F)cc3)NN2)CN(C(C)=O)C1,in the range around 3000 nM
22,OC(Cn1nnc(-c2ccccc2Nc2ccc(C(F)(F)F)cc2)n1)c1ccccc1 (centres undefined),in the range around 3000 nM
23,O[C@H]1CCC[C@H]1n1nnc(-c2ccccc2Nc2ccc(C(F)(F)F)cc2)n1,< 100 nM
